This note sets out measurements from patent publication US20260345612A1, “THERAPEUTIC COMBINATIONS COMPRISING UBIQUITIN-SPECIFIC-PROCESSING PROTEASE 1 (USP1) INHIBITORS AND PARP1-SELECTIVE INHIBITORS” (KSQ Therapeutics, Inc., priority 2022, published 2026).

In assay [1] the test system is olaparib resistant patient-derived breast xenograft. Kind of assay: Anti-tumor activity in olaparib resistant patient-derived breast xenograft model in nude mice. Type of assay: in vivo, Athymic nude mice. From the text: Example 1: Anti-Tumor Activity of Formula I Co-Crystal in Combination with the Selective PARP1 Inhibitor, AZD5305, in a Patient-Derived Breast Xenograft Model in Nude Mice
The USP1 inhibitor employed in the examples is the co-crystal described above in paragraphs and [0143]-[0155]. This co-crystal can be prepared as described in Example 6 of Published PCT WO2022/094096. The Formula I co-crystal is a co-crystal of gentisic acid and 6-(4-cyclopropyl-6-methoxypyrimidin-5-yl)-1-(4-(1-isopropyl-4-(trifluoromethyl)-1H-imidazol-2-yl)benzyl)-1H-pyrazolo[3,4-d]pyrimidine.
Anti-tumor activity of the USP1 inhibitor of Formula I co-crystal in combination with AZD5305 was evaluated in mice using an olaparib resistant patient-derived breast xenograft model in nude mice, as shown in FIGS. 1A through 1C. 6-9 week old female Athymic nude mice from Envigo were anesthetized, and a 20 mm^3 tumor fragment was placed subcutaneously via incision in the flank. When tumors established to a tumor volume ranging from 63 to 196 mm^3, mice were randomized into groups of 10 and were assigned into the following groups: control, Formula I (100 mg/kg), AZD5305 (10 mg/kg) or Formula I (100 mg/kg) and AZD5305 (10 mg/kg) in combination. […] Body weight and tumor volume were measured twice per week. Tumor volume was calculated as mean and standard error of the mean for each treatment group.
In general terms: In xenograft studies the graft and the host belong to different species.

Assay [2] has as its system breast xenograft tumors with resistance to AZD5305 monotherapy. Briefly: Combination activity in mice with tumors resistant to PARP inhibitors (AZD5305 monotherapy). Type of assay: in vivo, Athymic nude mice. As to conditions: from day 49, 5 mice resistant to AZD5305 monotherapy; Formula I (100 mg/kg) and AZD5305 (10 mg/kg); FIG. 1B. As for the experimental part: Anti-tumor activity of the USP1 inhibitor of Formula I co-crystal in combination with AZD5305 was evaluated in mice using an olaparib resistant patient-derived breast xenograft model in nude mice, as shown in FIGS. 1A through 1C. 6-9 week old female Athymic nude mice from Envigo were anesthetized, and a 20 mm^3 tumor fragment was placed subcutaneously via incision in the flank. When tumors established to a tumor volume ranging from 63 to 196 mm^3, mice were randomized into groups of 10 and were assigned into the following groups: control, Formula I (100 mg/kg), AZD5305 (10 mg/kg) or Formula I (100 mg/kg) and AZD5305 (10 mg/kg) in combination. Compound was administered via oral gavage once daily for at least 42 days dependent upon the treatment group. Body weight and tumor volume were measured twice per week. Tumor volume was calculated as mean and standard error of the mean for each treatment group.

With `CCc1cc2ncc(CN3CCN(c4ccc(C(=O)NC)nc4)CC3)cc2[nH]c1=O` [AZD5305, 5-[4-[(7-ethyl-6-oxo-5H-1,5-naphthyridin-3-yl)methyl]piperazin-1-yl]-N-methylpyridine-2-carboxamide, reference compound], the “resistance to AZD5305 monotherapy” value in assay [1] (AZD5305 (10 mg/kg) monotherapy, oral once daily, day 49, 5 mice) was “demonstrated resistance”. As to `COc1ncnc(C2CC2)c1-c1ncc2cnn(Cc3ccc(-c4nc(C(F)(F)F)cn4C(C)C)cc3)c2n1` [Formula I, 6-(4-cyclopropyl-6-methoxypyrimidin-5-yl)-1-(4-(1-isopropyl-4-(trifluoromethyl)-1H-imidazol-2-yl)benzyl)-1H-pyrazolo[3,4-d]pyrimidine], the “tumor volume after addition of Formula I, compared to remaining animals on AZD5305 monotherapy” value in assay [2] was “decrease in tumor volume”. Moreover, in assay [1] (Formula I (100 mg/kg) and AZD5305 (10 mg/kg), oral gavage once daily, at least 42 days, FIG. 1A), the “anti-tumor activity compared to equivalent doses of the single agents” value is reported as “enhances antitumor activity of AZD5305”.
